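Following 48 hours of exposure in 96-well plates, responses at five concentrations were used to interpolate endpoints linearly. Definition used: TGI = concentration required for complete inhibition of growth.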
Legend:
Test in all cases: NCI-60 cell line screen, 48 h
[1] = test system: MDA-MB-435
[2] = test system: BT-549 breast
[3] = test system: MALME-3M melanoma
[4] = test system: HT29 colon
[5] = test system: LOX IMVI melanoma
[6] = test system: RPMI-8226 leukemia
[7] = test system: KM12 colon
[8] = test system: M14 melanoma
[9] = test system: MDA-N
[10] = test system: OVCAR-8 ovarian
[11] = test system: SF-295 CNS
[12] = test system: SNB-75 CNS
[13] = test system: HOP-92 NSCLC
[14] = test system: TK-10 renal
[15] = test system: NCI-H23 lung
[16] = test system: HS 578T breast
[17] = test system: SF-539 CNS
[18] = test system: SNB-19 CNS
[19] = test system: SN12C renal
[20] = test system: RXF 393 renal
[21] = test system: SK-OV-3 ovarian
[22] = test system: HOP-62 NSCLC
[23] = test system: T-47D breast
[24] = test system: CCRF-CEM leukemia
[25] = test system: IGROV1 ovarian
[26] = test system: 786-0 renal
[27] = test system: NCI/ADR-RES ovarian
[28] = test system: UACC-62 melanoma
[29] = test system: NCI-H226 lung
[30] = test system: MDA-MB-231 breast
[31] = test system: OVCAR-3 ovarian
[32] = test system: OVCAR-5 ovarian
[33] = test system: SF-268 CNS
[34] = test system: A498 renal
[35] = test system: HCT-116 colon
[36] = test system: MCF7 breast
[37] = test system: HL-60(TB) leukemia
[38] = test system: HCC-2998 colon
[39] = test system: OVCAR-4 ovarian
[40] = test system: DU-145 prostate
[41] = test system: A549 NSCLC
[42] = test system: K-562 leukemia
[43] = test system: SK-MEL-28 melanoma
[44] = test system: UO-31 renal
[45] = test system: COLO 205 colon
[46] = test system: NCI-H522 lung
[47] = test system: PC-3 prostate
[48] = test system: SK-MEL-2 melanoma
[49] = test system: UACC-257 melanoma
[50] = test system: CAKI-1 renal
[51] = test system: ACHN renal
[52] = test system: MOLT-4 leukemia
[53] = test system: SK-MEL-5 melanoma
[54] = test system: EKVX NSCLC
[55] = test system: SW-620 colon
[56] = test system: U251 CNS
[57] = test system: HCT-15 colon

SMILES: CC(C)=CCc1c(O)c(CC2=C(O)C(C)=C(O)C(CC=C(C)C)(C(=O)C(C)C)C2=O)c(O)c(C(=O)C(C)C)c1O (configuration not stated)
- TGI [1]: > 38.4 µM
- TGI [2]: 36.9 µM
- TGI [3]: 17.9 µM
- TGI [4]: 12.6 µM
- TGI [5]: > 28.1 µM
- TGI [6]: > 31.2 µM
- TGI [7]: 17.5 µM
- TGI [8]: > 36.6 µM
- TGI [9]: 38.1 µM
- TGI [10]: 31.2 µM
- TGI [11]: > 38.1 µM
- TGI [12]: > 47.7 µM
- TGI [13]: 25.5 µM
- TGI [14]: > 47.7 µM
- TGI [15]: 25.4 µM
- TGI [16]: 21.6 µM
- TGI [17]: > 47.7 µM
- TGI [18]: > 31 µM
- TGI [19]: > 47.7 µM
- TGI [20]: > 47.7 µM
- TGI [21]: > 47.7 µM
- TGI [22]: > 29.5 µM
- TGI [23]: 33.7 µM
- TGI [24]: > 15.1 µM
- TGI [25]: 31.3 µM
- TGI [26]: > 35.3 µM
- TGI [27]: 27.5 µM
- TGI [28]: 22.4 µM
- TGI [29]: 21.8 µM
- TGI [30]: 46.5 µM
- TGI [31]: > 38.1 µM
- TGI [32]: > 42.5 µM
- TGI [33]: > 47.7 µM
- TGI [34]: > 38.9 µM
- TGI [35]: 19.8 µM
- TGI [36]: > 45.3 µM
- TGI [37]: > 47.7 µM
- TGI [38]: > 38.9 µM
- TGI [39]: > 47.7 µM
- TGI [40]: > 47.7 µM
- TGI [41]: > 47.7 µM
- TGI [42]: 34 µM
- TGI [43]: > 31.7 µM
- TGI [44]: 19.5 µM
- TGI [45]: > 47.7 µM
- TGI [46]: 21.5 µM
- TGI [47]: > 47.7 µM
- TGI [48]: > 31.4 µM
- TGI [49]: 28.8 µM
- TGI [50]: > 47.7 µM
- TGI [51]: > 40.5 µM
- TGI [52]: 11.4 µM
- TGI [53]: 18.3 µM
- TGI [54]: > 44.6 µM
- TGI [55]: > 44.7 µM
- TGI [56]: > 40.2 µM
- TGI [57]: > 47.7 µM
